# From US5256788A, “Moranoline derivatives and their production and the use of moranoline and its derivatives as a stabilizing agent for enzymes” (Nippon Shinyaku Co. Ltd., priority 1989, dated 1993)
# Legend:
# glucoamylase = biological target: T1, glucoamylase (Rhizopus arrhizus, UniProt P07683); assay: Stabilization of GA (aqueous solution) by moranoline, N-methylmoranoline; format: biochemical, Rhizopus niveus
# T1 construct: maltose substrate
# Method: As the enzyme, Rhizopus niveus-derived reagent glucoamylase manufactured by Seikagaku Kogyo Co., Ltd. was used.
# After 5 mg of the enzyme was dissolved in 1 ml of 0.1M acetate buffer solution (pH 5.0), moranoline and N-methylmoranoline were dissolved in the solution in a concentration of 6000 μg/ml. The solution was charged in a test tube with a screw stopper followed by incubation at 50° C. Each enzyme solution was diluted with 0.1M acetate buffer solution (pH 5.0) to 100-fold and 100 μl of the dilution was taken. After 400 μl of 5% maltose solution (0.05M acetate buffer solution, pH 4.6) was added thereto, the mixture was reacted at 40° C. for 20 minutes. […] Thereafter, the system was ice cooled and absorbency was measured at 500 nm to determine the glucose amount. […] When the initial enzyme activity (amount of glucose produced) was made […], relative enzyme activity was determined. […]
# After 5 mg of the enzyme was dissolved in 1 ml of 0.1M acetate buffer solution (pH 5.0), moranoline and N-methylmoranoline were dissolved in the solution in a concentration of 6000 μg/ml. […] Thereafter, the system was ice cooled and absorbancy was measured at 500 nm to determine the glucose amount. […] When the initial enzyme activity (amount of glucose produced) was made 100, relative enzyme activity was determined. […]
# β-amylase = β-amylase (Glycine max, UniProt P10538); assay: Stabilization of β-amylase by moranoline; format: biochemical, soybean; conditions: 6000 μg/ml, incubated at 65° C., pH 4.8
# Method: For control, a sample added with no moranoline was used.
# The activity of β-amylase was determined by the 3,5-dinitrosalicylic acid method of Example 37.
# β-glucosidase = assay: Stabilization of β-glucosidase by moranoline and N-methylmoranoline; format: biochemical; conditions: 6 mg/ml of the hydrochloride, kept at 60° C.
# Method: Test samples were (1) 1 ml of 0.2M buffer solution of β-glucosidase (300 μg/ml) alone, (2) 1 ml of 0.2M buffer solution of β-glucosidase (300 μg/ml) supplemented with 6 mg/ml of moranoline hydrochloride and, (3) 1 ml of 0.2M buffer solution of β-glucosidase (300 μg/ml) supplemented with 6 mg/ml of N-methylmoranoline hydrochloride. These test samples were kept at 60° C. and the residual enzyme activity was measured with passage of time.
# For determination of the enzyme activity, there was used a method measuring absorbancy at 400 nm using […] as a substrate.
# That is, 200 μl of 0.014M p-nitrophenyl-β-D-glucoside, 200 μl of the enzyme solution taken from each sample for sampling with passage of time which was appropriately diluted, and 600 μl of 0.2M acetate buffer solution (pH 4.5) were reacted at 30° C. for 15 minutes. After 2 ml of 0.1M disodium carbonate was added thereto to terminate the reaction, a color was formed and the color was measured at 400 nm. When absorbancy at the initiation of the reaction was made 100, relative absorbancy in each time was defined to be residual activity.
# T1 sequence (P07683 26-604): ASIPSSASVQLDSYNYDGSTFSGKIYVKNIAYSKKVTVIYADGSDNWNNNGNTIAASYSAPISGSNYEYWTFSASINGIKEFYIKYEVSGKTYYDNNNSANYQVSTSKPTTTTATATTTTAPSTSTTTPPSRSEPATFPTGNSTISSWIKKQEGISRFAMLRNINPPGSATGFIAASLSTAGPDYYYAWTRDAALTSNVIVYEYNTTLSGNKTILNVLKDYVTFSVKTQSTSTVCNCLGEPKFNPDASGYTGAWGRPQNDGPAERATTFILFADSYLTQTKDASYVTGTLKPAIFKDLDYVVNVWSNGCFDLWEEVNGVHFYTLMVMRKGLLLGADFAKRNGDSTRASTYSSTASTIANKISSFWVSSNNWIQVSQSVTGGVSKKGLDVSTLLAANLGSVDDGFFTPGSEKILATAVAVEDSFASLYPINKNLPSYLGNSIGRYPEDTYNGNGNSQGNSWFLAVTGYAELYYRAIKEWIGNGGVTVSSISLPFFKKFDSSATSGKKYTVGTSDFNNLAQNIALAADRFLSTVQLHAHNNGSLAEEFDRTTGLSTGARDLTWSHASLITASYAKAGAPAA
# Chain of β-amylase (P10538 whole entry): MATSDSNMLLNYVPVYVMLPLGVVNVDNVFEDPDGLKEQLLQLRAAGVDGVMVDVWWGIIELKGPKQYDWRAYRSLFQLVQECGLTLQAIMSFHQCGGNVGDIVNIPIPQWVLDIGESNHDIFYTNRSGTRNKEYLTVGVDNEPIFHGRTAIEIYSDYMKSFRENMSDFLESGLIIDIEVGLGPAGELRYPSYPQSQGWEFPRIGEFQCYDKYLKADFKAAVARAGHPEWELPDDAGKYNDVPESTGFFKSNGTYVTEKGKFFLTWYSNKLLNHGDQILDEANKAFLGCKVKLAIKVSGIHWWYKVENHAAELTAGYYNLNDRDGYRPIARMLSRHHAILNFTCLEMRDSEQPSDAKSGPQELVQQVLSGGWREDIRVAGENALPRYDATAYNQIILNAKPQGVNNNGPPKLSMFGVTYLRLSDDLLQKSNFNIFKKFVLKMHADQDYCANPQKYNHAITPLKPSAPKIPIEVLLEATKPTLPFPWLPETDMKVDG
smiles,measurement,setting,value
OC[C@H]1NC[C@H](O)[C@@H](O)[C@@H]1O [moranoline],inhibition of the enzyme activity of glucoamylase,glucoamylase,inhibit the enzyme activity of glucoamylase
same,"stabilizing action (residual activity, FIG. 6)",β-amylase,stabilizing action
same,"stabilizing effect (residual activity, FIG. 4)",β-glucosidase,stabilizing effect
